For data set [1], the system named is hair follicle melanocytes. The data set can be described thus: MSH-antagonizing effect: eumelanin production in cultured skin grafts, specimen pre-incubated with grafts before α-MSH (Example 2). It is filed as cell-based, yellow mice (C 57 BL/6J-A'). Further details: key: ±: weak; +: strong. The conditions noted are these: skin grafts cultured in Ham's F-12 at 37° C. for 2 days; for Eumelanin production, 10^-9 M of α-MSH and 10^-8 M of specimen added: microscope observation at hair follicles. Here is the method: (§1) Skin grafts (about 1 mm×1 mm) of yellow mice (C 57 BL/6J-A') (7.5 days after the birth) containing hair follicle melanocytes were cultured in Ham's F-12 culture medium at 37° C. for 2 days. The culture media used were: (i) Ham's F-12 medium containing α-MSH, (ii) that containing both α-MSH and the compound of the present invention, i.e., the compound of the present invention and the skin grafts had been incubated in a Ham's F-12 medium so as to interact the compounds with a receptor on the melanocyte surface of the skin and then the resultant was contacted with α-MSH in a fresh Ham's F-12 medium and (iii) that containing no additive. After completion of the culture followed by fixation with 10% formalin, specimens were prepared by an ordinary method.

Data set [2] relates to pigmented spots (chloasmata or freckles). In words: External preparation applied to pigmented spots of patients. In kind it is in vivo, human. The conditions noted are these: for Fading/relief of pigmented spots versus comparative cream / Skin trouble during or after use of the cream: cream containing 0.001 wt. % of compound; for Fading/relief of pigmented spots versus comparative cream: applied twice a day for two months, eight male and female patients; for Skin trouble during or after use of the cream: twice a day for two months. The text has this: The cream thus prepared was applied to pigmented spots (chloasmata or freckles) of eight male and female patients twice a day (in the morning and evening) for two months.

In data set [3] the test system is hair follicle melanocytes. In words: MSH-inhibiting effect: eumelanin production in cultured skin grafts, specimen pre-mixed with α-MSH (Example 10). It is filed as cell-based, yellow mice (C 57 BL/6J-A'). Further details: key: ±: weak; +: strong. The conditions noted are these: for Eumelanin production, 10^-9 M of α-MSH and 10^-8 M of specimen added: α-MSH and specimen mixed first, then skin grafts added, Ham's F-12, 37° C., 2 days. The method, then: as §1, with “i.e., α-MSH and” for “i.e.,”, “were mixed” for “and the skin grafts had been incubated in a Ham's F-12 medium”, “each other” for “the compounds with a receptor on the melanocyte surface of the skin”, “skin grafts were added thereto,” for “resultant was contacted with α-MSH in a fresh Ham's F-12 medium”

Data on 9 compounds can be found in US5126327A, “Melanocyte-stimulating hormone inhibitor and external preparation containing the same” (Lion Corporation, priority 1989, dated 1992).

Residues, ends and D or L forms follow the SMILES beside them. No end group written: not given here.

Take `CSCC[C@H](NC(C)=O)C(=O)N[C@@H](CCC(=O)O)C(=O)N[C@@H](Cc1c[nH]cn1)C(=O)N[C@@H](CO)C(=O)N[C@@H](CCCNC(=N)N)C(=O)N[C@@H](Cc1c[nH]c2ccccc12)C(=O)NCC(=O)N[C@@H](CCCCN)C(N)=O` [Compound No. 14, Ac--Met--Glu--His--Ser--Arg--Trp--Gly--Lys--NH2] (Ac-MEHSRWGK-NH2): in data set [1], the “Eumelanin production, 10^-9 M of α-MSH and 10^-8 M of specimen added” value (from here on “Eumelanin production … of specimen added”) is on record as “±”. With `CSCC[C@H](NC(=O)[C@H](CO)NC(=O)[C@H](Cc1ccc(O)cc1)NC(=O)[C@H](CO)NC(C)=O)C(=O)N[C@@H](CCC(=O)O)C(=O)N[C@@H](Cc1c[nH]cn1)C(=O)N[C@@H](CO)C(=O)N[C@@H](CCCNC(=N)N)C(=O)N[C@@H](Cc1c[nH]c2ccccc12)C(=O)NCC(=O)N[C@@H](CCCCN)C(=O)N1CCC[C@H]1C(=O)N[C@H](C(N)=O)C(C)C` [Compound No. 40, Ac--Ser--Tyr--Ser--Met--Glu--His--Ser--Arg--Trp--Gly--Lys--Pro--Val--NH2], the “Eumelanin production … of specimen added” value in data set [1] was “±”. Besides, in data set [2], the “Fading/relief of pigmented spots versus comparative cream” value was “far more faded” and the “Skin trouble during or after use of the cream” value is “no skin trouble was observed”. On to `CC[C@H](C)[C@H](N)C(=O)N[C@@H](CC(C)C)C(=O)N[C@@H](CC(C)C)C(=O)N[C@@H](C)C(=O)N[C@@H](CS)C(=O)N[C@@H](C)C(=O)N[C@@H](CCCNC(=N)N)C(=O)N[C@H](C(=O)N[C@@H](CO)C(=O)N1CCC[C@H]1C(=O)NCC(=O)N[C@@H](CCCNC(=N)N)C(=O)N[C@@H](CCCNC(=N)N)C(=O)O)[C@@H](C)CC` [Compound No. 113, Ile--Leu--Leu--Ala--Cys--Ala--Arg--Ile--Ser--Pro--Gly--Arg--Arg] (H-ILLACARISPGRR-OH), for which, in data set [2], the “Skin trouble during or after use of the cream” value is “no skin trouble was observed”. As to `CC[C@H](C)[C@H](NC(C)=O)C(=O)N[C@@H](CC(C)C)C(=O)N[C@@H](CC(C)C)C(=O)N[C@@H](C)C(=O)N[C@@H](CS)C(=O)N[C@@H](C)C(=O)N[C@@H](CCCNC(=N)N)C(=O)N[C@H](C(=O)N[C@@H](CO)C(=O)N1CCC[C@H]1C(=O)NCC(=O)N[C@@H](CCCNC(=N)N)C(=O)N[C@@H](CCCNC(=N)N)C(N)=O)[C@@H](C)CC` [Compound No. 116, Ac--Ile--Leu--Leu--Ala--Cys--Ala--Arg--Ile--Ser--Pro--Gly--Arg--Arg--NH2] (Ac-ILLACARISPGRR-NH2), in data set [3], the “Eumelanin production … of specimen added” value is on record as “±”. Moreover, the “Relief of pigmented spots versus comparative milky lotion” value in data set [2] (milky lotion containing 0.0001 % of compound, same method as Example 3) is recorded as “relieved the pigmented spots”. Consider `CC[C@H](C)[C@H](NC(=O)[C@H](CC(C)C)NC(=O)[C@H](CC(C)C)NC(=O)[C@H](CC(C)C)NC(=O)[C@H](CCC(N)=O)NC(=O)[C@H](CC(C)C)NC(=O)[C@H](C)NC(=O)[C@H](Cc1c[nH]cn1)NC(=O)[C@@H](N)CC(C)C)C(=O)N[C@@H](CC(C)C)C(=O)N[C@@H](CC(C)C)C(=O)N[C@@H](C)C(=O)N[C@@H](CS)C(=O)N[C@@H](C)C(=O)N[C@@H](CCCNC(=N)N)C(=O)N[C@H](C(=O)N[C@@H](CO)C(=O)N1CCC[C@H]1C(=O)NCC(=O)N[C@@H](CCCNC(=N)N)C(=O)N[C@@H](CCCNC(=N)N)C(=O)O)[C@@H](C)CC` [Compound No. 132, Leu--His--Ala--Leu--Gln--Leu--Leu--Leu--Ile--Leu--Leu--Ala--Cys--Ala--Arg--Ile--Ser--Pro--Gly--Arg--Arg] (H-LHALQLLLILLACARISPGRR-OH), for which the “Skin trouble during or after use of the cream” value in data set [2] is on record as “no skin trouble was observed”. In the case of `CC[C@H](C)[C@H](NC(=O)[C@H](CC(C)C)NC(=O)[C@H](CC(C)C)NC(=O)[C@H](CC(C)C)NC(=O)[C@H](CCC(N)=O)NC(=O)[C@H](CC(C)C)NC(=O)[C@H](C)NC(=O)[C@H](Cc1c[nH]cn1)NC(=O)[C@H](CC(C)C)NC(C)=O)C(=O)N[C@@H](CC(C)C)C(=O)N[C@@H](CC(C)C)C(=O)N[C@@H](C)C(=O)N[C@@H](CS)C(=O)N[C@@H](C)C(=O)N[C@@H](CCCNC(=N)N)C(=O)N[C@H](C(=O)N[C@@H](CO)C(=O)N1CCC[C@H]1C(=O)NCC(=O)N[C@@H](CCCNC(=N)N)C(=O)N[C@@H](CCCNC(=N)N)C(N)=O)[C@@H](C)CC` [Compound No. 135, Ac--Leu--His--Ala--Leu--Gln--Leu--Leu--Leu--Ile--Leu--Leu--Ala--Cys--Ala--Arg--Ile--Ser--Pro--Gly--Arg--Arg--NH2] (Ac-LHALQLLLILLACARISPGRR-NH2), the “Eumelanin production … of specimen added” value in data set [3] is reported as “±”. Take “Ac--Cys--Cys--Trp--Arg--Ser--His--Gln--Pro--NH2 (Ac-CCWRSHQP-NH2; cysteine pairing not given here) [compound 74]”: the “Eumelanin production … of specimen added” value in data set [1] is on record as “±”. Turning to “Ac--Cys--His--Cys--Cys--Trp--Arg--Ser--His--Gln--Pro--Ala--Arg--Pro--NH2 (Ac-CHCCWRSHQPARP-NH2; cysteine pairing not given here) [Compound No. 85]”, the “Eumelanin production … of specimen added” value in data set [1] is given as “±”. Besides, the “Fading/relief of pigmented spots versus comparative cream” value in data set [2] is listed as “relieved the pigmented spots”. For the compound “α-MSH: melanocyte-stimulating hormone (melanotropin), peptide hormone that activates melanocytes; stimulus in the skin graft test (SYSMEHFRWGKPV; ends and bridges not checked; UniProt P01189 138-150, looked up) [reference compound]”, the “Eumelanin production, 10^-9 M of α-MSH added” value was “+” in data set [1] (α-MSH alone) and “+” in data set [3] (α-MSH alone, skin grafts cultured in Ham's F-12 at 37° C. for 2 days).
